Measured values from patent US20200197409A1, “HEPATITIS B VIRUS SURFACE ANTIGEN INHIBITOR” (FUJIAN COSUNTER PHARMACEUTICAL CO., LTD., priority 2017, published 2020).

What was measured:
[1] = tested on: HBsAg; conditions: read-out: HBsAg EC50; HepG2.2.15 cells, supernatant on the 8th day
Description: The HBV DNA content in HepG2.2.15 cells culture supernatant was determined by real-time quantitative qPCR assay (real time-qPCR), and the HBV surface antigen content was determined by enzyme linked immunosorbent assay (ELISA). The inhibitory effect of the compound on HBV was evaluated by the EC50 value of the compound.
2.1 Cell Line: HepG2.2.15 Cells
3.1 HepG2.2.15 cells (4×10^4 cells/well) were seeded into a 96-well plate and incubated overnight at 37° C. under 5% CO2.
3.2 On the 2nd day, the compound was diluted into 8 concentrations with 3-fold gradient. The compounds with different concentrations were added into the culture wells in duplicate wells. The final concentration of DMSO in the culture medium was 0.5%, 10 μM ETV was used as a 100%/inhibition control, and 0.5% DMSO was used as a 0% inhibition control.
3.3 On the 5th day, the culture medium was replaced with a fresh medium containing the compound.
3.4 On the 8th day, the culture medium in the culture well was collected, and a part of the sample was taken for ELISA to determine the content of hepatitis B virus S antigen, a part of the sample was taken to extract DNA with a high-throughput DNA purification kit (Qiagen-51162).
3.8 Determination of hepatitis B virus S antigen content by ELISA
50 μL of sample and standard sample were taken and added into a reaction plate respectively, followed by addition of 50 μL of enzyme conjugate into each well, the mixture was shaken and well-mixed, and placed in a bath at 37° C. for 60 minutes. The plate was then washed with washing solution 5 times, followed by addition of 50 μL of illuminating substrate into each well, the mixture was well-mixed and allowed to react at room temperature for 10 minutes in the dark. Chemiluminescence intensity was determined by a ELISA.
Calculation of the percentage of inhibition:% Inh.=(1−value of sample/value of DMSO control)×100
Calculation of EC50: The 50% inhibitory concentration (EC50) value of the compound on HBV was calculated by GraphPad Prism software.

[2] = Plasma protein binding rate, human plasma; assay type: in vitro ADME; conditions: plasma of human, dialysis 4 hours at 37° C.
Description: The protein binding rate of Embodiment 6 in the plasma of human, CD-1 mouse and SD rat was determined, 796 μL of blank plasma was taken from human, CD-1 mice and SD rats, and 4 μL of test compound working solution (400 μM) or warfarin working solution (400 μM) was added to achieve a final concentration of the test compound and the warfarin in plasma samples of 2 μM. The samples were mixed thoroughly. The final concentration of organic phase DMSO was 0.5%, 50 μL of the test compound and warfarin plasma sample were transferred into sample receiving plates (three parallels), and a relative volume of corresponding blank plasma or buffer was immediately added, ensuring that the final volume of each sample well was 100 μL, and the volume ratio of plasma to dialysis buffer was 1:1. 400 μL of stop solution was added to these samples, which was used as a T0 sample for the determination of recovery and stability. […] The protein binding rate and the recovery rate were calculated by the formulas: % Protein unbinding rate (%)=100*Drug concentration through the dialysis membrane/drug concentration not through the dialysate: Protein binding rate (%)=100-% protein unbinding rate: % Recovery=100*(Drug concentration through the dialysis membrane+Drug concentration not through the dialysate)/Total drug concentration before undialysis. Protein binding rate and recovery rate were calculated.

With `COCCCOc1cc2c(cc1OC)-c1cc(=O)c(C(=O)O)cn1[C@H](C(C)(C)C)CO2` [Embodiment 6] the EC50 [1] was 3.88 nM and the fraction unbound at 4 h, 2 μM [2] was 0.443.
